In patent publication US6803466B1, “HIV/FIV protease inhibitors having a small P3 residue” (The Scripps Research Institute, priority 1997, dated 2004):

Key:
[1] = molecular target: T1, FIV PR (Feline immunodeficiency virus, UniProt P16088, C122K/G43I/N93T); assay: Inhibition of FIV PR (Ki, IC50); type: biochemical
T1 construct: made in house; host or cells: E. coli BL21(DE3)
Protocol: The solution was mixed and incubated for 10 minutes at 37° C. and the reaction quenched by addition of 8M guanidine HCl solution containing 0.2 M sodium acetate at pH 4.2 (100 μL). The cleavage products and substrate were separated by reverse phase HPLC. Absorbance was measured at 215 nm, peak areas were determined and percent conversion to product was calculated using relative peak areas. […] IC50 was determined as the inhibitor concentration at 50% inhibition. […] ([S]=substrate concentration in nmol). The data used was generated similarly to that for Ki with the following modifications. The substrate concentrations used were 560, 448, 336, 224, 111 and 56 μM, in the absence of inhibitor.
Kinetic determinations for both HIV PR and FIV PRs were performed at 37° C. at pH 5.25 in duplicate using F-2000 fluorescence spectrophotometer (Hitachi).
For FIV PRs, the kinetic data were determined under the similar reaction conditions as for HIV PR.

[2] = test system: wild type HIV PR; assay: Cell culture IC90, wild type; type: cell-based; conditions: Human immunodeficiency virus 1, read-out: IC90 against the wild type HIV PR
[3] = test system: SIVmac251 in 174×CEM cells; assay: Ex vivo inhibitor analysis against SIV, p27 antigen ELISA; type: cell-based
Protocol: The results from tissue culture assays against SIV (FIG. 14) and HIV (FIG. 14) were equally encouraging. […] The effectiveness of compound 1200 against HIV was measured by determining the percentage of viable cells remaining in culture over time in the presence and absence of drug (FIG. 14). In the control, HIV caused formation of multinucleated syncytia and 100% cell death by 9 days post infection. However, the cells cultured with 1 μg/ml (1.1 μM) or 5 μg/ml (5.5 μM) of inhibitor 1200 remained 100% viable after 1 month, identical to results obtained in the absence of virus infection. To test for virus in these cultures, supernatants were removed and added to 1×10^5 uninfected MT-2 cells after a 1:5 dilution with fresh CM. […] In contrast, when 2×10^5 infected MT-2 cells that had been treated with compound 1200 for two weeks were removed and replated in fresh medium with or without compound 1200 only MT-2 cells cultured in the absence of compound 1200 were dead within 4 days (data not shown). […] Cultures are being carried continuously in the presence of compound 12 to look for resistance development. Tests are also underway to determine the level of efficacy of the compound against a defined panel of drug-resistant HIVs. […]

[4] = test system: HIV WEAU-1.6 in MT-2 cells; assay: microbe, parasite or virus in culture; type: cell-based
Protocol: The results from tissue culture assays against SIV (FIG. 14) and HIV (FIG. 14) were equally encouraging. […] The effectiveness of compound 1200 against HIV was measured by determining the percentage of viable cells remaining in culture over time in the presence and absence of drug (FIG. 14). In the control, HIV caused formation of multinucleated syncytia and 100% cell death by 9 days post infection. However, the cells cultured with 1 μg/ml (1.1 μM) or 5 μg/ml (5.5 μM) of inhibitor 1200 remained 100% viable after 1 month, identical to results obtained in the absence of virus infection. To test for virus in these cultures, supernatants were removed and added to 1×10^5 uninfected MT-2 cells after a 1:5 dilution with fresh CM. […] In contrast, when 2×10^5 infected MT-2 cells that had been treated with compound 1200 for two weeks were removed and replated in fresh medium with or without compound 1200 only MT-2 cells cultured in the absence of compound 1200 were dead within 4 days (data not shown). […] Cultures are being carried continuously in the presence of compound 12 to look for resistance development. Tests are also underway to determine the level of efficacy of the compound against a defined panel of drug-resistant HIVs.
WEAU-1.6, a kind gift of George Shaw, University of Alabama (^18), a CXCR4 utilizing isolate, was used for all studies. 2×10^5 MT-2 cells in 0.1 ml were infected for 4 hr, at 37° C., using WEAU-1.6 at 25 TCID50. Before establishing cultures for inhibitor assessment infected cells were washed 3 times with complete medium (CM), which was RPMI-1640 supplemented with 10% FBS, […], 200 mM L-glutamine, and […] of gentamicin sulfate, to remove any unbound virus. For inhibitor assessment cultures were established in duplicate or triplicate using 5×10^4 infected cells and 1×10^5 uninfected cells in a total volume of 1.5 mls in Costar 6 well-plates. Once cultures were established they were split 1:4 every 3 days, and given fresh CM. Compound 12 (from a 10 mg/ml stock in DMSO) was added at […] at initiation of the culture and after each split. For testiing of the antiviral efficacy of compound 1200 in MT-2 were assessed every day using a Olympus (model) inverted microscope equipped with phase contrast objectives. When MT-2 cells are infected with WEAU-1.6 they form syncytia and die with in 24 hours, events easily discernible visually. A total of 200 cells were counted in each well, and when syncytia were noted, cells were removed and tested for viability by using trypan-blue. Results are expressed as the average of viable cells.

[5] = Human immunodeficiency virus 1, MT2, read-out: viable cells remaining in culture

CC(C)[C@H](NC(=O)[C@H](C)NC(=O)OCc1ccccc1)C(=O)N[C@@H](Cc1ccccc1)[C@@H](O)[C@H](O)[C@H](Cc1ccccc1)NC(=O)[C@@H](NC(=O)[C@H](C)NC(=O)OCc1ccccc1)C(C)C [Compound 1b]
Ki [1]: 41 nM | IC90 [2]: 100 nM | inhibition of SIV infection in tissue culture (in words) [3]: strongly inhibits | SIV virus expression, p27 antigen in culture supernatant ([3]; 1 μg/ml): near background | inhibition of HIV infection in tissue culture (in words) [4]: strongly inhibits | free virus in supernatants, transfer to uninfected MT-2 cells ([4]; 1:5 dilution, after 3 weeks): remained uninfected | viability at 1.1 µM [4, 5]: 100% | viability at 5.5 µM [4, 5]: 100%
